US20190008810A1, “METHOD FOR PREVENTION, TREATMENT AND ALLEVIATION OF INFECTIOUS DISEASES AND DISORDERS” (REPLICON HEALTH OY, priority 2016, published 2019)

What was measured:
[1] = system: seasonal flu or similar infectious disease; assay type: in vivo, human; conditions: S1, 2 or 3 times 1×500 mg during work days, before DGA
[2] = system: acute bowels inflammation caused by diverticulitis; assay: Healing from acute inflammatory bowels disease (diverticulitis) in S4, Example 1e; assay type: in vivo, human; conditions: S4, 1000 mg 1-2 times a day, before DGA
Excerpt: In Example 1e the resolution of gastrointestinal tract infection in another subject 4 (S4) has been shown. Like in S1 also in S4 the HO-1 pathway is clearly activated by the DGA Activation. This is indirectly shown by the clear reduction of blood bilirubin in Table 1e. […] During last few years these seldom but acute inflammations in the gastrointestinal tract have been mostly in the colon and caused by inflammation in Colonic diverticula. […] The only functioning therapy for inflammatory bowels disease has been the administration of strong intravenous antibiotics.
Like other tests with unhealthy humans also this test was done because there were no other efficient substances available. When symptoms of increased bowels inflammation/diverticulosis started S4 was on holiday abroad with very difficult access to any specialized doctor not to mention any hospital. […] Simultaneously with inflammatory symptoms and maybe partially enhancing them S4 experienced constipation.
By Saturday night on the 4th day of gradually increasing acute inflammation in the colon, S4 decided to test whether DGA Activation in combination with paracetamol would assist in resolving this already rather serious inflammation. There were no other available options at that moment. This decision was also supported by confidential information received on positive results with S1 (Examples 1b and 1c).
Saturday night at 0737 pm first 260 mg of D-glyceric acid calcium salt mixed into water was taken with 2×500 mg of paracetamol. Another additional 260 mg dose of DGAcs mixed into water was taken the same night at 1020 pm. Altogether the starting dose was 9 mg/kg i.e. relatively high. High initial dose was chosen because of high level of inflammation.

`CC(=O)Nc1ccc(O)cc1` [paracetamol, reference compound] was tested, and the “effect on general symptoms and fever” value [1] was “temporary relief but no cure” and the “effect on pains and symptoms” value [2] was “helped to relief pains for 2-3 days but the symptoms got worse”.
